Structures are written as SMILES.

IC50 data for 19 compounds are collected here from patent publication US20240376085A1 (Janssen Pharmaceutica NV, priority 2021, published 2024).

One experiment concerns the target T1, IL-17A : IL-17RA binding (Homo sapiens, UniProt Q16552, K93Q).
T1 construct: Name: IL-17A-Flag
Put plainly: IL-17A(FLAG-tagged):IL-17RA(His-tagged) binding disruption Eu-HTRF assay, Protocol 1. The note with it: FLAG-IL-17A 2.5 nM at 2x final concentration; average if tested more than once. A digest of the protocol:
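IC50 came from a one-site competition fit of the acceptor/donor (665/620 nm) HTRF ratio. His-tagged IL-17RA, Eu-anti-FLAG and D2-anti-His were added after a 1 h rt compound preincubation with FLAG-tagged IL-17A dimer in PBS/0.01% Triton X-100, followed by 2 h at rt before reading.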

The subject of experiment [1] is IL-17A-induced G-CSF production in human normal keratinocyte (NHK). The experiment in a line: NHK assay: IL-17A-induced G-CSF production in normal human keratinocytes. It counts as cell-based. The note with it: 24 h, IL-17A 5 ng/mL, average if tested more than once. A digest of the protocol: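 IC50 derives from G-CSF in supernatants, quantified by HTRF from a standard curve, with CellTiter-Glo viability compared to DMSO control. Before a 24 h, 37°C culture of normal human keratinocytes at 3000–4000 cells/well, compound dilutions were preincubated 1 h at rt with human IL-17A (5 ng/mL final), with 0.2% DMSO and 5% FBS.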

T1 sequence (Q16552 with tags, fused parts or gaps K93Q): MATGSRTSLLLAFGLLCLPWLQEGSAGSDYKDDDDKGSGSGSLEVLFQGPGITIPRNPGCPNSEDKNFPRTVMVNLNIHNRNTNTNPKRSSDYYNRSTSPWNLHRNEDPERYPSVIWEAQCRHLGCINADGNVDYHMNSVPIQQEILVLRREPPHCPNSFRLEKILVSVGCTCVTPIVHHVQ

Consider `C[C@@H](NC(=O)CCC(F)(F)F)c1ccc2[nH]c([C@@H](NC(=O)c3cnn(CCC4CC4)n3)C3CCC(F)(F)CC3)nc2c1` [Example 12, 2-(2-Cyclopropylethyl)-N—[(S)-(4,4-difluorocyclohexyl)-[6-[(1R)-1-(4,4,4-trifluorobutanoylamino)ethyl]-1H-benzimidazol-2-yl]methyl]triazole-4-carboxamide], for which the IC50 (commonly the concentration that gives 50% inhibition) is 50 to 100 nM at IL-17A : IL-17RA binding and greater than 100 nM in experiment [1] (Homo sapiens, Keratinocyte).
Turning to `CC(C)c1ocnc1C(=O)N[C@H](c1nc2cc([C@@H](C)NC(=O)CCC(F)(F)F)ccc2[nH]1)C1CCC(F)(F)CC1` [Example 207, N—((S)-(4,4-Difluorocyclohexyl)(5-((R)-1-(4,4,4-trifluorobutanamido)ethyl)-1H-benzo[d]imidazol-2-yl)methyl)-5-isopropyloxazole-4-carboxamide], the IC50 on IL-17A : IL-17RA binding was 50 to 100 nM; in experiment [1] (Homo sapiens, Keratinocyte), greater than 100 nM.
`C[C@@H](NC(=O)CCC(F)(F)F)c1ccc2[nH]c([C@@H](NC(=O)c3cnn(CC4CC4(F)F)n3)C3CCC(F)(F)CC3)nc2c1` (stereo partly drawn) [Example 81, N—((S)-(4,4-Difluorocyclohexyl)(5-((R)-1-(4,4,4-trifluorobutanamido)ethyl)-1H-benzo[d]imidazol-2-yl)methyl)-2-((2,2-difluorocyclopropyl)methyl)-2H-1,2,3-triazole-4-carboxamide]: the IC50 at IL-17A : IL-17RA binding is greater than 100 nM; in experiment [1] (Homo sapiens, Keratinocyte), greater than 100 nM.
As to `C[C@@H](NC(=O)CCC(F)(F)F)c1ccc2[nH]c([C@@H](NC(=O)[C@@H]3C[C@@H]3C#N)C3CCC(F)(F)CC3)nc2c1` [Example 102, cis-(1,2)-2-Cyano-N—((S)-(4,4-difluorocyclohexyl)(5-((R)-1-(4,4,4-trifluorobutanamido)ethyl)-1H-benzo[d]imidazol-2-yl)methyl)cyclopropane-1-carboxamide], the IC50 on IL-17A : IL-17RA binding was greater than 100 nM; in experiment [1] (Homo sapiens, Keratinocyte) it was greater than 100 nM.
With `C[C@@H](NC(=O)CCC(F)(F)F)c1ccc2nc([C@@H](NC(=O)c3cn(CC4CC(F)(F)C4)nn3)C3CCC(F)(F)CC3)[nH]c2c1` [Example 65, 1-((3,3-Difluorocyclobutyl)methyl)-N—((S)-(4,4-difluorocyclohexyl)(6-((R)-1-(4,4,4-trifluorobutanamido)ethyl)-1H-benzo[d]imidazol-2-yl)methyl)-1H-1,2,3-triazole-4-carboxamide], the IC50 at IL-17A : IL-17RA binding was greater than 100 nM; in experiment [1] (Homo sapiens, Keratinocyte), greater than 100 nM.
Consider `C[C@@H](NC(=O)CCC(F)(F)F)c1ccc2nc([C@@H](NC(=O)c3cnn(CC4CC4)c3)C3CCC(F)(F)CC3)[nH]c2c1` [Example 61, 1-(Cyclopropylmethyl)-N—((S)-(4,4-difluorocyclohexyl)(6-((R)-1-(4,4,4-trifluorobutanamido)ethyl)-1H-benzo[d]imidazol-2-yl)methyl)-1H-pyrazole-4-carboxamide], for which the IC50 was greater than 100 nM at IL-17A : IL-17RA binding and greater than 100 nM in experiment [1] (Homo sapiens, Keratinocyte).
On to `Cc1nonc1C(=O)N[C@H](c1nc2ccc([C@H](NC(=O)CC3CC(F)(F)C3)C3CC3)cc2[nH]1)[C@@H]1CCCC(F)(F)C1` [Example 246, N—((S)-(6-((R)-Cyclopropyl(2-(3,3-difluorocyclobutyl)acetamido)methyl)-1H-benzo[d]imidazol-2-yl)((R)-3,3-difluorocyclohexyl)methyl)-4-methyl-1,2,5-oxadiazole-3-carboxamide], for which the IC50 was less than 50 nM on IL-17A : IL-17RA binding and less than 50 nM in experiment [1] (Homo sapiens, Keratinocyte).
Regarding `C[C@@H](NC(=O)CCC(F)(F)F)c1ccc2[nH]c([C@@H](NC(=O)[C@H]3C[C@@H]3C(F)(F)F)C3CCC(F)(F)CC3)nc2c1` (relative stereo) [Example 105, trans-(1S*,2S*)—N—((S)-(4,4-Difluorocyclohexyl)(5-((R)-1-(4,4,4-trifluorobutanamido)ethyl)-1H-benzo[d]imidazol-2-yl)methyl)-2-(trifluoromethyl)cyclopropane-1-carboxamide], the concentration for half-maximal inhibition (IC50) is greater than 100 nM on IL-17A : IL-17RA binding and greater than 100 nM in experiment [1] (Homo sapiens, Keratinocyte).
As for `C[C@@H](NC(=O)CCC(F)(F)F)c1ccc2[nH]c([C@@H](NC(=O)C3(C)CC3)C3CCC(F)(F)CC3)nc2c1` [Example 95, N—((S)-(4,4-Difluorocyclohexyl)(5-((R)-1-(4,4,4-trifluorobutanamido)ethyl)-1H-benzo[d]imidazol-2-yl)methyl)-1-methylcyclopropane-1-carboxamide], the IC50 at IL-17A : IL-17RA binding is greater than 100 nM; in experiment [1] (Homo sapiens, Keratinocyte), greater than 100 nM.
With `C[C@@H](NC(=O)CCC(F)(F)F)c1ccc2[nH]c([C@@H](NC(=O)c3cn(CC4CCC4)nc3C(N)=O)C3CCC(F)(F)CC3)nc2c1` [Example 89, 1-(Cyclobutylmethyl)-N^4—((S)-(4,4-difluorocyclohexyl)(5-((R)-1-(4,4,4-trifluorobutanamido)ethyl)-1H-benzo[d]imidazol-2-yl)methyl)-1H-pyrazole-3,4-dicarboxamide], the IC50 was greater than 100 nM at IL-17A : IL-17RA binding and greater than 100 nM in experiment [1] (Homo sapiens, Keratinocyte).
Turning to `C[C@@H](NC(=O)CCC(F)(F)F)c1ccc2[nH]c(C(CC(C)(C)C(F)(F)F)NC(=O)c3cnn(CC4CC4)n3)nc2c1` (single isomer, unassigned) [Example 218, 2-(Cyclopropylmethyl)-N—((S*)-4,4,4-trifluoro-3,3-dimethyl-1-(5-((R)-1-(4,4,4-trifluorobutanamido)ethyl)-1H-benzo[d]imidazol-2-yl)butyl)-2H-1,2,3-triazole-4-carboxamide], the 50% inhibitory concentration (IC50) (on IL-17A : IL-17RA binding; in experiment [1]) was greater than 100 nM throughout.
As to `CC(Cn1ncc(C(=O)N[C@H](c2nc3ccc([C@@H](C)NC(=O)CCC(F)(F)F)cc3[nH]2)C2CCC(F)(F)CC2)n1)C(F)(F)F` (single isomer, unassigned) [Example 70, N—((S)-(4,4-Difluorocyclohexyl)(6-((R)-1-(4,4,4-trifluorobutanamido)ethyl)-1H-benzo[d]imidazol-2-yl)methyl)-2-((S*)-3,3,3-trifluoro-2-methylpropyl)-2H-1,2,3-triazole-4-carboxamide], the half-inhibitory concentration (IC50) (at IL-17A : IL-17RA binding; in experiment [1]) was greater than 100 nM each time.
On to `Cn1nccc1C(=O)N[C@H](c1nc2cc(C(CC3CCC3)NC(=O)CCC(F)(F)F)ccc2[nH]1)C1CCC(F)(F)CC1` (single isomer, unassigned) [Example 47, N—((S)-(5-((R*)-2-Cyclobutyl-1-(4,4,4-trifluorobutanamido)ethyl)-1H-benzo[d]imidazol-2-yl)(4,4-difluorocyclohexyl)methyl)-1-methyl-1H-pyrazole-5-carboxamide], for which the IC50 on IL-17A : IL-17RA binding was greater than 100 nM; in experiment [1], less than 50 nM.
As for `Cc1nonc1C(=O)N[C@@H](COC(C)(C)C(F)(F)F)c1nc2ccc([C@H](NC(=O)CC3CC(F)(F)C3)C3CC3)cc2[nH]1` (relative stereo) [Example 161, N—((R*)-1-(6-((R)-Cyclopropyl(2-(3,3-difluorocyclobutyl)acetamido)methyl)-1H-benzo[d]imidazol-2-yl)-2-((1,1,1-trifluoro-2-methylpropan-2-yl)oxy)ethyl)-4-methyl-1,2,5-oxadiazole-3-carboxamide], the half-maximal inhibitory concentration (IC50) is less than 50 nM on IL-17A : IL-17RA binding and 50 to 100 nM in experiment [1] (Homo sapiens, Keratinocyte).
The like results for `CC(C)n1nccc1C(=O)N[C@H](c1nc2ccc([C@@H](C)NC(=O)CC(C)C(F)(F)F)cc2[nH]1)C1CCC(F)(F)CC1` (single isomer, unassigned) [Example 135, N—((S)-(4,4-Difluorocyclohexyl)(6-((R)-1-((R*)-4,4,4-trifluoro-3-methylbutanamido)ethyl)-1H-benzo[d]imidazol-2-yl)methyl)-1-isopropyl-1H-pyrazole-5-carboxamide] were, in that order, greater than 100 nM and less than 50 nM.
The like results for `Cc1nonc1C(=O)N[C@H](c1nc2cc([C@H](NC(=O)CC(C)C(F)(F)F)C3CC3)ccc2[nH]1)[C@@H]1CCCC(F)(F)C1` (single isomer, unassigned) [Example 258, N—((S)-(5-((R)-Cyclopropyl((R*)-4,4,4-trifluoro-3-methylbutanamido)methyl)-1H-benzo[d]imidazol-2-yl)((R)-3,3-difluorocyclohexyl)methyl)-4-methyl-1,2,5-oxadiazole-3-carboxamide] were, in that order, 50 to 100 nM and 50 to 100 nM.
Turning to `O=C(CC1CC(F)(F)C1)N[C@@H](c1ccc2nc([C@@H](NC(=O)c3nonc3C3CC3)[C@H]3CCCC(F)(F)C3)[nH]c2c1)C1CC1` [Example 170, 4-Cyclopropyl-N—((S)-(6-((R)-cyclopropyl(2-(3,3-difluorocyclobutyl)acetamido)methyl)-1H-benzo[d]imidazol-2-yl)((S)-3,3-difluorocyclohexyl)methyl)-1,2,5-oxadiazole-3-carboxamide], the IC50 on IL-17A : IL-17RA binding is less than 50 nM; in experiment [1] (Homo sapiens, Keratinocyte), less than 50 nM.
For the compound `CC(C)n1nccc1C(=O)N[C@H](c1nc2ccc([C@H](NC(=O)CC3CC(F)(F)C3)C3CC3)cc2[nH]1)C1CCC(F)(F)CO1` (single isomer, unassigned) [Example 261, N—((R)-(6-((R)-Cyclopropyl(2-(3,3-difluorocyclobutyl)acetamido)methyl)-1H-benzo[d]imidazol-2-yl)((S*)-5,5-difluorotetrahydro-2H-pyran-2-yl)methyl)-1-isopropyl-1H-pyrazole-5-carboxamide], the half-inhibitory concentration (IC50) at IL-17A : IL-17RA binding was greater than 100 nM; in experiment [1] (Homo sapiens, Keratinocyte) it was 50 to 100 nM.
Take `C[C@@H](NC(=O)CCC(F)(F)F)c1ccc2[nH]c([C@@H](NC(=O)c3cn(CC4CC4)nn3)C3CCC(F)(F)CC3)nc2c1` [Example 10, 1-(Cyclopropylmethyl)-N—[(S)-(4,4-difluorocyclohexyl)-[6-[(1R)-1-(4,4,4-trifluorobutanoylamino)ethyl]-1H-benzimidazol-2-yl]methyl]triazole-4-carboxamide]: the 50% inhibitory concentration (IC50) at IL-17A : IL-17RA binding was greater than 100 nM; in experiment [1] (Homo sapiens, Keratinocyte) it was greater than 100 nM.
